Structures can show the parent of a compound that is named as a salt.
Experiment: Preservation stability of the crystal at 40° C/75% RH for 6 months (water content by Karl-Fischer, content by HPLC)
Assay type: physicochemical
Conditions: for content (%) (converted into dehydrated form): HPLC method; for water content (%): Karl-Fischer method
Procedure: A crystal of 3-[5-(4-carbamimidoyl-2-fluorophenoxy)carbonyl-2-thienyl]-2,2-dimethylpropanoic acid hydrochloride obtained by the method of Example 3 was preserved for 6 months under 40° C/75% RH conditions. […] Therefore, the crystalline form is useful as a crystalline form of a drug substance for pharmaceutical products.
The water content was measured by the Karl-Fischer method, and the content was measured by the HPLC method using a column charged with octadecylsilyl silica gel for liquid chromatography.

content (%) (converted into dehydrated form) (6 months at 40° C/75% RH): 99.5%
water content (%) (6 months at 40° C/75% RH): 0.1%
preservation stability of the crystal (40° C./75% RH for 6 months): stable
content (%) (converted into dehydrated form) (start): 99.5%
water content (%) (start): 0.1%
SMILES: CC(C)(Cc1ccc(C(=O)Oc2ccc(C(=N)N)cc2F)s1)C(=O)O [Example 3, 3-[5-(4-carbamimidoyl-2-fluorophenoxy)carbonyl-2-thienyl]-2,2-dimethylpropanoic acid hydrochloride]
